In this assay the target is T1, UGT1A3 (Homo sapiens, UniProt P35503).
T1 sequence (P35503 29-534): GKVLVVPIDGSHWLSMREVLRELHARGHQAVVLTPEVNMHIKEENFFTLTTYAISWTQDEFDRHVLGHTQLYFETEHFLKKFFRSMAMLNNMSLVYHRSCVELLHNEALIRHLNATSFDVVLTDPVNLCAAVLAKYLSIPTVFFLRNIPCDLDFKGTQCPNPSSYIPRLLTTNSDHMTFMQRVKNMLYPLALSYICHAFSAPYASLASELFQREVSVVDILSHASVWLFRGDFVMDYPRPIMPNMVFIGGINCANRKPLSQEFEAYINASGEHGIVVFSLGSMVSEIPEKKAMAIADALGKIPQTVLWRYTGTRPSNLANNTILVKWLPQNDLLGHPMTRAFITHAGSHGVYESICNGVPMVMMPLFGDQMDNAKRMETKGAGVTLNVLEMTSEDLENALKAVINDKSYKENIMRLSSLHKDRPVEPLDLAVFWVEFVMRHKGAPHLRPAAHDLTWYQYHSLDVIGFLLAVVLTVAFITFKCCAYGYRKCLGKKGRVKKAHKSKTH
As to the kind of experiment: UGT1A3-catalyzed chenodeoxycholic acid 24-acyl-glucuronidation in human liver microsomes. Details: from tissue; host or cells: ultrapooled human liver microsomes. It is filed as in vitro ADME. The protocol: The inhibitory effects of EAM-2201 on UGT1A1, UGT1A3, UGT1A4, UGT1A6, UGT1A9 and UGT2B7 were evaluated using LC-MS/MS and the cocktail of UGT substrates as previously described. […] Supernatant from sets A and B (50 µL of each) was mixed and aliquots (5 µL) were analyzed by LC-MS/MS. […]
Reactions were initiated by adding UDPGA at 37 °C and stopped after 60 min by adding 100 µL ice-cold methanol containing propofol glucuronide (internal standard). […] Aliquots (5 µL) of the diluted supernatants were analyzed using LC-MS/MS.
The metabolites formed from the six UGT cocktail substrates were simultaneously measured using LC-MS/MS [41]. […] Each metabolite was quantified via SRM in the negative ion mode: chenodeoxycholic acid 24-acyl-β-glucuronide, 567.2 > 391.0; mycophenolic acid glucuronide, 495.2 > 318.9; and propofol glucuronide (IS), 353.3 > 177.1; and in the positive ion mode: SN-38 glucuronide, 569.0 > 393.0; trifluoperazine glucuronide, 584.2 > 408.1; N-acetylserotonin-β-D-glucuronide, 395.2 > 219.0; naloxone 3-β-D-glucuronide, 504.0 > 310.0; and meloxicam (IS), 352.0 > 115.1. […]
In general terms: Microsomes from liver hold many membrane-bound enzymes, among them those of drug oxidation.

By IC50 is commonly meant the point on the concentration scale where inhibition reaches its midpoint. High values mean a need for much substance, low ones inhibition by little substance. One may read the Ki as the dissociation constant of the complex between target and ligand, obtained from inhibition or displacement. On to `CCc1ccc(C(=O)c2cn(CCCCCF)c3ccccc23)c2ccccc12` [EAM-2201, (4-ethyl-1-naphthalenyl)[1-(5-fluoropentyl)-1H-indol-3-yl]-methanone], for which it took 11.7 µM to reach half-maximal inhibition (IC50) and affinity was put at a Ki of 2.4 µM.

Values taken from article PMC6017357, “In Vitro Inhibitory Effects of Synthetic Cannabinoid EAM-2201 on Cytochrome P450 and UDP-Glucuronosyltransferase Enzyme Activities in Human Liver Microsomes” (Molecules : A Journal of Synthetic Chemistry and Natural …, 2018).
